Values belong to the molecule of their own block, whether it stands above or below them.
Legend:
[1] = tested on: mitochondrial membrane potential in U87 and U87-TxR cells; assay: TMRE mitochondrial membrane potential; assay type: cell-based, human; conditions: 4 µM, 24 h, both cell lines
Description: The cell-permeable fluorescent dye TMRE was used to evaluate mitochondrial membrane potential. TMRE selectively accumulates in active mitochondria with intact membrane potential. […] U87 and U87-TxR cells were seeded in 6-well plates at a density of 150,000 cells per well. After 24 h, cells were treated with 2 and 5 (4 µM) and incubated for an additional 24 h. After treatment, cells were trypsinized, resuspended in complete medium containing 500 nM TMRE, and incubated for 30 min at 37 °C in the dark. CCCP (10 µM) was used as a positive control for mitochondrial depolarization and added 30 min before staining. For each sample, at least 10,000 events were collected. TMRE was detected at […]. The results were calculated using CytExpert 2.4.0.28 software (Beckman Coulter, Indianapolis, IN, USA).

[2] = tested on: TrxR1 protein in U87-TxR cells; assay: TrxR1 protein expression by flow cytometry, U87-TxR; assay type: cell-based, human; conditions: 48 h; for protein level of TrxR1: 2 µM and 4 µM
Description: Flow cytometry was used to assess TrxR1 and ASK1 protein expression in the U87 and U87-TxR cell lines. Cells were seeded and allowed to attach overnight before exposure to compounds 2 and 5 at final concentrations of 2 μM and 4 μM. After 48 h treatment, cells were collected by trypsinization, rinsed with PBS, and subsequently fixed in 4% PFA for 10 min at room temperature. For permeabilization, ice-cold absolute methanol was added, and the samples were maintained at −20 °C overnight. Following this step, cells were washed in PBS and incubated for 1 h in 0.5% BSA/PBS to block nonspecific binding. Pelleted cells were then resuspended in primary antibodies diluted in 0.5% BSA/PBS [(ASK1, 1:200 (ab45178, Abcam, Cambridge, UK); TrxR1, 1:500 (ab124954, Abcam, Cambridge, UK)] and incubated overnight at +4 °C. Cells were then washed in PBS and incubated for 1 h at room temperature in the dark with fluorescently labeled anti-rabbit IgG secondary antibody (Alexa Fluor 488, ab150097, Abcam, Cambridge, UK), diluted 1:1000 in 0.5% BSA/PBS. Following incubation, samples were washed, resuspended in cold PBS, and analyzed by flow cytometry. A minimum of 10,000 events per sample were acquired, and fluorescence was detected in a green fluorescence channel (525 nm). Data acquisition and processing were performed using CytExpert software (version 2.4.0.28; Beckman Coulter, Indianapolis, IN, USA).

[3] = tested on: TrxR (SH-SY5Y cell lysate); assay: Colorimetric detection of cell lysate TrxR activity (DTNB); assay type: biochemical, human; conditions: 50 µM, DTNB absorbance at 412 nm over 20 min
Text: We further analyzed the potential of adamantane–sclareol hybrids to inhibit TrxR enzyme activity using a colorimetric assay for the detection of TrxR activity in cell lysates. This kinetic assay is based on the ability of TrxR to reduce its substrate 5,5ʹ-dithiobis(2-nitrobenzoic acid) (DTNB) to the yellow product 5-thio-2-nitrobenzoic acid (TNB) in the presence of NADPH. The absorbance of the produced TNB is considered equivalent to the enzymic activity of TrxR. In the kinetic assay, the absorbance of DTNB was measured over 20 min, resulting in a curve showing the dependence of absorbance on time.
TrxR enzyme activity in cell lysate was determined by the reduction of the TrxR substrate DTNB to the yellow product TNB in the presence of NADPH (Acros Organics, Thermo Fisher Scientific, Waltham, MA, USA). Lysate from human neuroblastoma SH-SY5Y cells was used for the TrxR assay. SH-SY5Y cells were grown to 80% confluence, washed twice with PBS, and detached using Hanks-based enzyme-free dissociation solution (Millipore, Billeri-ca, MA, USA). Collected cells were centrifuged at 2000 rpm for 3 min and rinsed in PBS buffer. After additional centrifugation, cells were lysed on ice using Lysis Buffer (50 mM Tris, 150 mM NaCl, 1 mM EDTA, 1% NP40, 0.1% SDS, 0.5% Na-deoxycholate, pH 7.8) containing protease inhibitor mix G (SERVA Electrophoresis GmbH, Heidelberg, Germany) and phosphatase inhibitor cocktail 3 (Sigma-Aldrich, Darmstadt, Germany). The cell lysates were centrifuged at 16,000× g for 15 min at 4 °C. The protein concentrations of the supernatants were determined using a Pierce^TM BCA protein assay kit (Thermo Fisher Scientific, Waltham, MA, USA). The reactions were run in 96-well plates, in a final volume of 100 μL, in 50 mM potassium phosphate buffer (pH 7.0) containing 50 μg of cell lysate proteins, 1 mM EDTA, 50 mM KCl, 0.2 mg/mL BSA, and 0.25 mM NADPH. […] Enzyme kinetics were monitored on an automated microplate reader (MultiskanSky, Thermo Fisher Scientific, Waltham, MA, USA) by measuring the increase in absorbance at 412 nm for 20 min. […]

P-gp (U87-TxR cells) = biological target: T1, P-gp (U87-TxR cells) (Homo sapiens, UniProt P08183); assay: Rhodamine 123 accumulation assay; assay type: cell-based; conditions: highest concentration, 30 min
T1 construct: Studies were carried out with 2, 5, and TQ in U87-TxR cells with P-gp overexpression; endogenous in cells; host or cells: U87-TxR (paclitaxel-selected from U87)
T1 sequence (P08183 whole entry): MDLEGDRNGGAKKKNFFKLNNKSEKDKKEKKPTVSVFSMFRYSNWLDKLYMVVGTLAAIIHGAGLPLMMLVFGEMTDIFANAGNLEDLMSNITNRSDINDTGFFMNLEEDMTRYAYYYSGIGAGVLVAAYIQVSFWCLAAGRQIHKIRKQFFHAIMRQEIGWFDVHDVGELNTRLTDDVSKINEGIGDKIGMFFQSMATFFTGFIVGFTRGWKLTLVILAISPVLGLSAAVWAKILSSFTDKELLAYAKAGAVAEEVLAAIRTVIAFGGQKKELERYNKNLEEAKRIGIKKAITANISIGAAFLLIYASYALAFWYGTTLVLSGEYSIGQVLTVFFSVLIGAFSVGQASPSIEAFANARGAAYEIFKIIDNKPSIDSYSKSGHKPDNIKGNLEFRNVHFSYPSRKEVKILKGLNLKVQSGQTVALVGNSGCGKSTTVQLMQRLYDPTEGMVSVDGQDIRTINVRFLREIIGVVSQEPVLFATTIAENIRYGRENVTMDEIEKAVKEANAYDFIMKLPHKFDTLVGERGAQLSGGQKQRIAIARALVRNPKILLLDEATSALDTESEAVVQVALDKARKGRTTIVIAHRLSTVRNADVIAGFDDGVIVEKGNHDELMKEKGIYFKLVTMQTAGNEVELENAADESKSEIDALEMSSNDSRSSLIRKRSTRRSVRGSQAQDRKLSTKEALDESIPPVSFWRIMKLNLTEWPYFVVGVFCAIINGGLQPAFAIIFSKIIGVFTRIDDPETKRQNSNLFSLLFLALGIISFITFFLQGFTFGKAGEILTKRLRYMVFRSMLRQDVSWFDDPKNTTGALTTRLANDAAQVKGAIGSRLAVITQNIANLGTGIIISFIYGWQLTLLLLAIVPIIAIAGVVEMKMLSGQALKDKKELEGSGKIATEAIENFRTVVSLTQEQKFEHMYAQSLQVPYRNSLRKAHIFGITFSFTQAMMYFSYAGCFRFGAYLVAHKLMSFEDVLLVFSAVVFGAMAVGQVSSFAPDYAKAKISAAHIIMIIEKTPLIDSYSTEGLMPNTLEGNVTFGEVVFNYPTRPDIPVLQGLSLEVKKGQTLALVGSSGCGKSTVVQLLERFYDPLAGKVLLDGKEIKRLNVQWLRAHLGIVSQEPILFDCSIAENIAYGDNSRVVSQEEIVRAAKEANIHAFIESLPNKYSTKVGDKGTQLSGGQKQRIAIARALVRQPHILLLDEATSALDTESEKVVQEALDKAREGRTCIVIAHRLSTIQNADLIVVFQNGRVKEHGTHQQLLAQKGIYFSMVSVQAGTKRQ
Description: Studies were carried out with 2, 5, and TQ in U87-TxR cells with P-gp overexpression. Sensitive U87 cells were used as a positive control for Rho 123 accumulation. U87-TxR cells were seeded in 6-well plates at a density of 100,000 cells/well and incubated overnight. Then, the cells were treated with 1 μM and 2 μM of compounds 2 and 5 for 24 h, 48 h, and 72 h. Thereafter, cells were incubated with 2 μM Rho 123 for an additional 30 min at 37 °C in 5% CO2. In another experimental setting, 2 μM Rho123 was simultaneously applied with increasing concentrations of 2 or 5 (1 μM, 2 μM, and 4 μM) for 30 min. At the end of the accumulation period, the samples were washed twice, resuspended in 1 mL of cold PBS, and analyzed using a CytoFLEX flow cytometer (Beckman Coulter, Indianapolis, IN, USA). The fluorescence was read in a green fluorescence channel (525 nm). At least 10, 000 events were assayed for each sample. Data were analyzed using CytExpert 2.4.0.28 software (Beckman Coulter, Indianapolis, IN, USA).

P-gp = tested on: P-gp; parameters: method as in PMID 40939538; conditions: non-small cell lung carcinoma sensitive and MDR P-gp-overexpressing cells ref 23; cited from earlier work

Structure (SMILES): CC1(C)CCC[C@]2(C)[C@@H](CC[C@@](C)(O)/C=C/c3ccc(CNCCCCCCCCNCC45CC6CC(CC(C6)C4)C5)o3)[C@](C)(O)CC[C@@H]12 [Compound 5]
TMRE fluorescence (mitochondrial membrane potential) [1]: decreased
protein level of TrxR1 [2]: significantly increased
increase in TrxR1 level ([2]; 4 µM, relative to untreated control): 69%
TrxR enzyme activity [3]: do not inhibit TrxR enzyme activity
Rho 123 accumulation vs TQ (50 nM) (P-gp (U87-TxR cells)): comparable to TQ
P-gp interaction (P-gp): P-gp substrate

Rho 123 accumulation vs TQ (50 nM) (P-gp (U87-TxR cells)): comparable to TQ
Structure (SMILES): CC1(C)CCC[C@]2(C)[C@@H](CC[C@@](C)(O)/C=C/c3ccc(CNCCCCCCCCNCC45CC6CC(CC(C6)C4)C5)s3)[C@](C)(O)CC[C@@H]12 [Compound 2]
TMRE fluorescence (mitochondrial membrane potential) [1]: decreased
protein level of TrxR1 [2]: significantly increased
TrxR enzyme activity [3]: do not inhibit TrxR enzyme activity
P-gp interaction (P-gp): P-gp inhibitor

Reference: PMC12735718, “Novel Adamantane–Sclareol Hybrids Exploit ROS Vulnerability to Overcome Multidrug-Resistance in Glioblastoma Cells” (Molecules, 2025)
